Results: patent US8011774B2, “Azo dye, colored composition, heat-sensitive transfer recording ink sheet, heat-sensitive transfer recording method, color toner, inkjet ink and color filter” (Fujifilm Corporation, priority 2006, dated 2011)

Columns and labels:
Assay type in all cases: physicochemical
[1] = Solubility of dye when preparing ink sheet dye-providing layer coating composition; parameters: key: A: The dye easily dissolves.; B: The dye dissolves.; C: The dye is sparingly soluble, but dissolves; conditions: dye 5.5 parts, polyvinylbutyral resin, methyl ethyl ketone/toluene (1/1) coating composition
Protocol: As a support, was used a 6 μm thick polyester film, a back surface of which had been subjected to a heat resistant lubricating processing with a 1 μm thick thermosetting acrylic resin (Lumirror (trade name), a product of Toray). On the front surface of the support, the following dye-providing layer-coating composition was coated by a wire bar coating so that a dry thinness of the dye-providing layer became 1 μm. Thus, Ink sheet 1 was prepared.
Solubility of these dyes contained in these ink sheets were evaluated according to the following three grades;
A: The dye easily dissolves.
C: The dye is sparingly soluble, but dissolves.

[2] = Light stability (light resistance) of transferred dye image under Xenon light; conditions: Xenon light 17,000 lux, 7 days; residual ratio of Status A reflection density 1.0
Protocol: Next, each of the thus image-recorded thermal transfer image-receiving material was exposed to Xenon light (17,000 lux) for 7 days to examine light stability (light resistance) of the dye image. Status A reflection densities after exposure were measured in the portions indicating status A reflection density of 1.0. A stability of the image was evaluated in terms of a residual ratio (percentage) based on the reflection destiny before exposure according to the following three grades:
A: 80% or more, but 100% or less
B: 60% or more, but […]

[3] = Deposition of dye with lapse of time in the ink sheet, examined by eye; parameters: key: A: No precipitation is observed.; B: Precipitation is slightly observed.; C: Precipitation is apparently observed; conditions: deposition of dye with a lapse of time in the ink sheet
Excerpt: Further, deposition of dyes with a lapse of time in the ink sheet was examined by a native eye, thereby to evaluate based on the following three grades:
A: No precipitation is observed.
B: Precipitation is slightly observed.
C: Precipitation is apparently observed.

[4] = Maximum absorption wavelength of absorption spectrum in ethyl acetate solution; conditions: 1×10^−6 mol/L, optical path length 10 mm
Protocol: A mixture of 3.53 g of Intermediate (7a) (0.01 mol), 2.76 g of potassium carbonate (0.02 mol) and dimethylacetamide (15 ml) was stirred at 0° C. To the mixture was gradually dropped 4.23 g (0.03 mol) of methyl iodide. After stirring for 3 hours at room temperature, 50 ml of water was added thereto. After extraction with 50 ml of ethyl acetate, the extracted solution was washed with saturated brine. Then, the extracted solution was concentrated with a rotary evaporator. Thus-obtained residue was purified using a silica gel chromatography (developing solvent: ethyl acetate/hexane=1/4, v/v). A yellow powder of Exemplified compound (7) was obtained. Yield: 3.01 g (82%), Melting Point: 192° C. λmax (ethyl acetate solution) of the Exemplified compound (7) was 442 nm.
Exemplified compounds (1), (5), (8), (9), (10), (13) and (23) were synthesized in the manner described above. In Table 1 shown below, are indicated the maximum absorption wavelength in each of absorption spectra of the thus-obtained Exemplified compounds (1), (5), (8), (9), (10), (13) and (23) in an ethyl acetate solution (Density: 1×10^−6 mol/L, Optical path length: 10 mm) and melting points of these compounds, together with the Exemplified compounds (7) obtained in the Synthesis Examples.

Solubility [1]	Light resistance [2]	Precipitation [3]	Maximum absorption wavelength [4]	SMILES
A	A (80% or more, but 100% or less)	A	–	CCSc1nnc(/N=N/c2c(C(C)(C)C)nn3nc(C(C)C)n(C)c23)s1 [Dye (28)]
A	A (80% or more, but 100% or less)	A	–	Cc1nn(C)c2c(/N=N/c3nc4ccccc4n3C)c(C(C)(C)C)nn12 [Dye (14)]
A	C (less than 60%)	A	–	CCN(CCOc1ccc(C2CCCCC2)cc1)c1ccc(C=C(C#N)C#N)cc1 [Dye for Comparison 3, reference compound]
–	–	–	471 nm	Cc1nsc(/N=N/c2c(C(C)(C)C)nn3c(C(C)C)nn(C)c23)c1C#N [Dye (13)]
A	A (80% or more, but 100% or less)	A	449 nm	CCSc1nnc(/N=N/c2c(C(C)(C)C)nn3c(C(C)C)nn(CC)c23)s1 [Dye (23)]
A	A (80% or more, but 100% or less)	A	443 nm	CC(C)c1nn(C)c2c(/N=N/c3c(C#N)c(C(C)(C)C)nn3C)c(C(C)(C)C)nn12 [Dye (10)]
A	A (80% or more, but 100% or less)	A	434 nm	Cc1nn2nc(C(C)(C)C)c(N=Nc3c(C#N)c(C(C)(C)C)nn3C)c2n1C [Dye (1)]
A	A (80% or more, but 100% or less)	A	441 nm	CCn1nc(C(C)(C)C)c(C#N)c1/N=N/c1c(C(C)(C)C)nn2c(C)nn(CC)c12 [Dye (8)]
B	B (60% or more, but less than 100%)	B	–	CCSc1nnc(N=Nc2c(C(C)(C)C)nn3c(C(C)C)n[nH]c23)s1 [Dye for Comparison 1, reference compound]
A	A (80% or more, but 100% or less)	A	441 nm	CCc1nn(C)c2c(/N=N/c3c(C#N)c(C(C)(C)C)nn3C)c(C(C)(C)C)nn12 [Dye (9)]

SMILES	Solubility [1]	Light resistance [2]	Precipitation [3]	Maximum absorption wavelength [4]
Cc1nn(C)c2c(N=Nc3c(C#N)c(C(C)(C)C)nn3C)c(C(C)(C)C)nn12 [Dye (7)]	A	A (80% or more, but 100% or less)	A	442 nm
